Among the test systems are Malme-3M; A498; NCI-H23; NCI-H460; EKVX; RXF 393; 786-0; ACHN; T47D; HOP-92; TK-10; HCT-15; SNB-19; OVCAR-3; U-251; MDA-N; SNB-75; SK-OV-3; CCRF-CEM.
Holding throughout (experiment): NCI tumour cell line growth inhibition, 48 h

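A five-concentration, 48-hour dose response in 96-well plates underlies each endpoint, interpolated linearly between surrounding concentrations. GI50 is the concentration that inhibits growth by half.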 Activity calls are given as the source filed them. Cut-off read from the data, not from the text of the source: active = GI50 up to about 1.1 µM and inactive = higher.

For `Cc1ncc(COP(=O)(O)O)c(C)c1O`, the GI50 in the assay on Malme-3M, in the assay with A498, in the assay with NCI-H23, in the assay with NCI-H460, in the assay with EKVX and in the assay on RXF 393 was > 100 µM (inactive) throughout. Besides, the GI50 in the assay on 786-0 is > 100 µM (inactive); with ACHN, > 100 µM (inactive); with T47D it was > 100 µM (inactive); in the assay on HOP-92 it was > 100 µM (inactive); in the assay with TK-10 it was > 100 µM (inactive); in the assay with HCT-15, > 100 µM. Besides, the GI50 with SNB-19, in the assay with OVCAR-3, in the assay with U-251 and in the assay with MDA-N was > 100 µM (inactive) throughout.

`N#Cc1c(C#N)c(SSc2c(C#N)c(C#N)c(N)n2-c2ccccc2)n(-c2ccccc2)c1N`: the GI50 in the assay with Malme-3M was 2 µM (inactive); with A498, 20.7 µM (inactive); in the assay on NCI-H23 it was 23.6 µM (inactive); in the assay with SNB-75 it was 31.8 µM (inactive); in the assay with NCI-H460, 30.6 µM (inactive); in the assay with EKVX, 20.9 µM (inactive). For the same compound, the GI50 with RXF 393 is 18.3 µM (inactive); in the assay on SK-OV-3, 19.3 µM (inactive); with 786-0, 9.44 µM (inactive); in the assay on ACHN, 5.08 µM (inactive); in the assay on T47D, 2.44 µM (inactive); in the assay with HOP-92, 2.08 µM (inactive). Besides, the GI50 in the assay with TK-10 was 1.82 µM (inactive); in the assay with HCT-15 it was 2.77 µM; with SNB-19, 22.4 µM (inactive); in the assay with OVCAR-3, 16.7 µM (inactive); in the assay with U-251, 21.6 µM (inactive); in the assay with MDA-N, 28.8 µM (inactive).

Consider `O=C1c2ccccc2-n2c1nc1ccc(Cl)cc1c2=O`, for which the GI50 in the assay on A498 was > 100 µM (inactive); in the assay on NCI-H23, 66.2 µM (inactive); in the assay on SNB-75 it was 27.5 µM (inactive); in the assay on NCI-H460, > 100 µM (inactive); in the assay on EKVX it was 92 µM (inactive); in the assay on RXF 393 it was 3.48 µM (inactive). Also, the GI50 in the assay with SK-OV-3 was > 100 µM (inactive); in the assay with 786-0 it was 26.1 µM (inactive); in the assay with ACHN, > 100 µM (inactive); in the assay on T47D, 0.474 µM (active); in the assay with HOP-92, 45.3 µM (inactive); in the assay on TK-10, 77.4 µM (inactive). Further, the GI50 was 56.1 µM with HCT-15; > 100 µM (inactive) with SNB-19; 3.2 µM (inactive) in the assay with CCRF-CEM; > 100 µM (inactive) with OVCAR-3; 34.5 µM (inactive) in the assay with U-251; 16.6 µM (inactive) in the assay with MDA-N.

On to `O=C1/C(=C/c2ccc3c(c2)OCO3)Sc2scc(-c3ccc(O)c(O)c3)[n+]21`, for which the GI50 in the assay on NCI-H23 is 2.69 µM (inactive); with SNB-75 it was 0.644 µM (active); in the assay on NCI-H460, 3.56 µM (inactive); in the assay with EKVX, 2.67 µM (inactive); in the assay on RXF 393 it was 3.11 µM (inactive); in the assay with SK-OV-3, 8.11 µM (inactive). The GI50 in the assay with 786-0 is 1.92 µM (inactive); with ACHN it was 1.86 µM (inactive); with T47D, 2.97 µM (inactive); in the assay on HOP-92, 2.65 µM (inactive); with TK-10, 2.04 µM (inactive); in the assay with HCT-15, 1.63 µM. The GI50 in the assay with SNB-19 is 10.7 µM (inactive); in the assay with CCRF-CEM it was 0.264 µM (active); in the assay with OVCAR-3 it was 4.61 µM (inactive); in the assay with U-251, 4.62 µM (inactive); in the assay on MDA-N it was 3.12 µM (inactive).

Take `CC#CCOC(=O)c1ccccc1OC(C)=O`: the GI50 in the assay with A498, in the assay with NCI-H23, with SNB-75, in the assay with NCI-H460, in the assay with EKVX and in the assay on RXF 393 was > 100 µM (inactive) throughout. Also, the GI50 in the assay with SK-OV-3, in the assay with 786-0, in the assay with ACHN, with T47D, in the assay with HOP-92 and in the assay on TK-10 was > 100 µM (inactive) throughout. Besides, the GI50 is > 100 µM in the assay with HCT-15; > 100 µM (inactive) in the assay with SNB-19; > 100 µM (inactive) in the assay with CCRF-CEM; > 100 µM (inactive) in the assay with U-251; > 100 µM (inactive) with MDA-N.

As for `CCOC(=O)Cn1nc2ccc(Nc3c(C)[n+]([O-])c4cc(F)c(OCC)cc4[n+]3[O-])cc2n1`, the GI50 with A498 is > 100 µM (inactive); in the assay with NCI-H23, > 100 µM (inactive); in the assay on NCI-H460, > 100 µM (inactive); in the assay with EKVX, > 100 µM (inactive); in the assay on RXF 393, 20.7 µM (inactive); in the assay with SK-OV-3 it was 56.4 µM (inactive). Besides, the GI50 with 786-0 is 29.8 µM (inactive); in the assay with ACHN, 22.4 µM (inactive); in the assay on T47D, > 100 µM (inactive); in the assay with HOP-92 it was 18.2 µM (inactive); with TK-10, 27.5 µM (inactive); in the assay with HCT-15, > 100 µM. Also, the GI50 was > 100 µM (inactive) in the assay on CCRF-CEM, > 100 µM (inactive) in the assay with OVCAR-3, 37.5 µM (inactive) in the assay on U-251 and > 100 µM (inactive) with MDA-N.

For `N#CCc1nc(-c2cc3ccc(O)cc3oc2=O)cs1`, the GI50 in the assay on Malme-3M is > 100 µM (inactive); in the assay on SNB-75 it was 57 µM (inactive); in the assay with NCI-H460 it was 50 µM (inactive); in the assay on EKVX, 63 µM (inactive); in the assay with RXF 393, 84.7 µM (inactive); with SK-OV-3, 73.6 µM (inactive). Further, the GI50 was > 100 µM (inactive) with 786-0; 57.9 µM (inactive) in the assay with ACHN; 36.7 µM (inactive) in the assay on T47D; > 100 µM (inactive) in the assay with HOP-92; > 100 µM (inactive) with TK-10; 35.9 µM with HCT-15. Moreover, the GI50 with SNB-19 is > 100 µM (inactive); with CCRF-CEM, 38.7 µM (inactive); with U-251, 45.8 µM (inactive); with MDA-N, 48.9 µM (inactive).

Consider `N#CCc1nc2cc(C(F)(F)F)ccc2s1`, for which the GI50 is 42.6 µM (inactive) in the assay on Malme-3M; 70 µM (inactive) with A498; 27.7 µM (inactive) with NCI-H23; 35.3 µM (inactive) in the assay with SNB-75; 10.7 µM (inactive) with EKVX; 52.2 µM (inactive) in the assay with RXF 393. Further, the GI50 is > 100 µM (inactive) with SK-OV-3; 37.3 µM (inactive) in the assay with 786-0; 56 µM (inactive) in the assay on ACHN; 23.1 µM (inactive) with T47D; 20.4 µM (inactive) with HOP-92; 41.8 µM (inactive) in the assay with TK-10. The GI50 with HCT-15 was 52.1 µM; in the assay on OVCAR-3, 18.3 µM (inactive); in the assay with U-251, 38.7 µM (inactive); in the assay on MDA-N, 32.2 µM (inactive).

For the compound `O=c1oc2ccccc2cc1P(=O)(O)O`, the GI50 in the assay on Malme-3M, in the assay on A498, in the assay with NCI-H23, with SNB-75, in the assay on NCI-H460 and in the assay on EKVX was > 100 µM (inactive) throughout. The GI50 with RXF 393, with 786-0, in the assay with ACHN, with T47D, in the assay with HOP-92 and with TK-10 was > 100 µM (inactive) each time. Also, the GI50 in the assay on HCT-15 was > 100 µM; in the assay with SNB-19, > 100 µM (inactive); in the assay with CCRF-CEM, > 100 µM (inactive); in the assay with OVCAR-3, > 100 µM (inactive); in the assay on U-251 it was > 100 µM (inactive); in the assay on MDA-N it was > 100 µM (inactive).

For the compound `O=C(c1cccnc1)N1N=C(c2ccc(Cl)cc2)CC1(O)c1cc(F)c(Cl)cc1Cl` (stereo not given), the GI50 was 33.3 µM (inactive) in the assay on Malme-3M; 18.5 µM (inactive) in the assay with NCI-H23; 5.7 µM (inactive) in the assay on SNB-75; 21.5 µM (inactive) with NCI-H460; 17.5 µM (inactive) with EKVX; 7.05 µM (inactive) in the assay on RXF 393. The GI50 in the assay with SK-OV-3 is 30.2 µM (inactive); in the assay on 786-0 it was 17.9 µM (inactive); in the assay with ACHN, 18.8 µM (inactive); in the assay with T47D, 2.39 µM (inactive); in the assay with HOP-92 it was 17.5 µM (inactive); in the assay with TK-10 it was 41.1 µM (inactive). The GI50 with HCT-15 is 13.6 µM; in the assay on SNB-19, 41.3 µM (inactive); in the assay on CCRF-CEM, 13.3 µM (inactive); with OVCAR-3, 6.5 µM (inactive); in the assay with U-251, 14.3 µM (inactive); in the assay on MDA-N, 16.7 µM (inactive).

For the compound `[N-]=[N+]=Nc1cc(=O)n2c3c(cccc13)CCC2`, the GI50 with Malme-3M was > 100 µM (inactive); with A498, > 100 µM (inactive); with NCI-H23 it was > 100 µM (inactive); with SNB-75 it was > 100 µM (inactive); in the assay with NCI-H460, > 100 µM (inactive); with EKVX, 43.7 µM (inactive). The GI50 in the assay on RXF 393, with 786-0, with ACHN, with T47D, in the assay on HOP-92 and with TK-10 was > 100 µM (inactive) in each case. Besides, the GI50 was > 100 µM in the assay on HCT-15; > 100 µM (inactive) with CCRF-CEM; > 100 µM (inactive) with OVCAR-3; > 100 µM (inactive) in the assay with U-251; > 100 µM (inactive) in the assay with MDA-N.

Regarding `C=C(C)CNC(=S)N(N)c1ccc(OC)cc1`, the GI50 in the assay with Malme-3M is > 100 µM (inactive); in the assay with NCI-H23, > 100 µM (inactive); in the assay on SNB-75 it was 99.8 µM (inactive); with NCI-H460, > 100 µM (inactive); in the assay on EKVX, 82.2 µM (inactive); in the assay with RXF 393 it was > 100 µM (inactive). Further, the GI50 with SK-OV-3 was > 100 µM (inactive); in the assay with 786-0, > 100 µM (inactive); in the assay on ACHN, 39.2 µM (inactive); in the assay with T47D, > 100 µM (inactive); with HOP-92, > 100 µM (inactive); in the assay with TK-10, > 100 µM (inactive). Besides, the GI50 was 21.8 µM with HCT-15; > 100 µM (inactive) in the assay on SNB-19; 94 µM (inactive) in the assay on CCRF-CEM; > 100 µM (inactive) in the assay with OVCAR-3; > 100 µM (inactive) in the assay with U-251; 99.3 µM (inactive) in the assay on MDA-N.

For the origin of these results see ChEMBL document CHEMBL1201862, “PubChem BioAssay data set” (2004).
